# In patent US20240417684A1, “DIFFERENTIATION AND USE OF HUMAN MICROGLIA-LIKE CELLS FROM PLURIPOTENT STEM CELLS AND HEMATOPOIETIC PROGENITORS” (THE REGENTS OF THE UNIVERSITY OF CALIFORNIA, priority 2017, published 2024):
# Entries after “also recorded” stand apart in the source; their conditions may differ.
# Experiments:
# iMGLs [1] = experiment: Mesoscale multiplex cytokine and chemokine assay of iMGL conditioned media; type: cell-based, human; conditions: for CCL2 secretion, mean ± SE / CCL3 secretion, mean ± SE / CCL4 secretion, mean ± SE / CCL17 secretion, mean ± SE / CXCL10 secretion, mean ± SE / IL1A secretion, mean ± SE / IL6 secretion, mean ± SE / IL8 secretion, mean ± SE / IL10 secretion, mean ± SE / TNFA secretion, mean ± SE: iMGLs stimulated 24 h, IFNγ 20 ng/ml, IL-1β 20 ng/ml or LPS 100 ng/ml; for TNFA secretion, mean ± SE: n=3 wells/group; for cytokines/chemokines secreted by iMGLs in response to the stimulus: of the 10 examined cytokines, 24 h
# Method: iMGLs culture media was replaced with basal media for 2 hours prior to stimulation with IFNγ (20 ng/ml), IL1β (20 ng/ml), and LPS (100 ng/ml) for 24 hours, after which cells were collected for RNA and conditioned media assessed for cytokine secretion. To simultaneously assess multiple cytokine and chemokine analytes from iMGL conditioned media, conditioned media from each treatment group was processed and analyzed using the V-PLEX human cytokine 30-plex kit (Mesoscale) according to the manufacturer protocol.
# P2ry12 [2] = target: T1, P2ry12 (Homo sapiens, UniProt Q9H244); experiment: ADP trans-well migration assay; type: cell-based; conditions: pre-exposure 50 μM, 1 hr; ADP 100 μM
# T1 construct: iMGLs express the microglial-enriched purinergic receptor P2ry12; endogenous in cells; host or cells: iMGLs (human iPSC-derived microglia-like cells)
# Method: Trans-well migration assays to ADP was performed as previously described (De Simone et al., 2010; Moore et al., 2015). iMGLs (5.5×10^4 cells/well) were cultured in serum-free basal media without cytokines for 1hour. Next, iMGLS were pre-exposed to DMSO or PSB0739 (50 μM, Tocris) for 1 hr at 37° C. in 5% CO2 cell culture incubator. Cells were then washed three times with basal medium and plated in trans-well migration chambers (5 μm polycarbonate inserts in 24 wells; Corning) containing […] (ADP, 100 μM; Sigma) in the bottom chamber in 37° C. in 5% CO2. After 4 hours, cells were washed three times and fixed in PFA (4%) for 15 minutes at room temperature. Cells were stained with Hoechst stain for 10 mins to visualize nuclei of cells. A blinded observer counted total cells per slide and then scrubbed cells off top surface, washed with PBS, and recounted to record migrated cells. Migration was reported as migrated over total cells per well. Fluorescent images of cells were captured using Olympus IX71 inverted microscope. […] […]
# P2ry12 [3] = target: T1, P2ry12; experiment: ADP calcium imaging (Fura-2-AM, I340/I380); type: cell-based; conditions: 50 μM, 1 hour; ADP 10 μM
# Method: For calcium imaging, iMGLs were plated on poly-L-lysine-coated coverslips and 1 hour later were incubated with Fura-2-AM (Molecular Probes) calcium dye diluted in Ringer solution containing (in mM): NaCl 140, KCl 4.5, CaCl2 2, MgCl2 1, HEPES 10, glucose 10, sucrose 5, pH=7.4. After a 1-hour incubation, the dye was washed out 3 times using Ringer solution and treated for 1 hour with either P2RY12 inhibitor PSB0739 (50 μM, Tocris) or Vehicle (DMSO) and used for experiments. Baseline Ca^2+ signal (I340/I380) were measured for more than 100 s and then ADP (10 μM) was introduced under stead flow after baseline measurement. Ca^2+ recordings were performed on Zeiss (Axiovert 35)-based imaging setup and data acquisition was conducted with Metafluor software (Molecular Devices). Data analysis was performed using Metafluor, Origin Pro, and Prism 6.0.
# iMGLs [4] = experiment: RNA-seq differential gene expression of iMGLs with or without TGFβ; type: cell-based, human
# Method: Cells were harvested and washed three times with DPBS and stored in RNAlater, RNA preservation solution. RNA was extracted from all cell types using RNeasy Mini Kit (Qiagen) following manufacturer's guidelines. RNA integrity (RIN) was measured for all samples using the Bioanalzyer Agilent 2100 series. All sequencing libraries analyzed were generated from RNA samples measuring a RIN score≥9. The Illumina TruSeq mRNA stranded protocol was used to obtain poly-A mRNA from all samples. 200 ng of isolated mRNA was used to construct RNA-seq libraries. Libraries were quantified and normalized using the Library Quantification Kit from Kapa Biosystems and sequenced as paired-end 100 bp reads on the Illumina HiSeq 2500 platform.
# RNA-seq reads were mapped to the hg38 reference genome using STAR aligner and mapped to Gencode version 24 gene annotations using RSEM. Genes with expression (<1 FPKM) across all samples were filtered from all subsequent analysis. Differential gene expression analysis was performed on TMM normalized counts with EdgeR (Robinson et al., 2010). Multiple biological replicates were used for all comparative analysis. A p-value≤0.001 and a 2-fold change in expression were used in determining significant differentially expressed genes for respective comparisons. PCA analysis was performed using the R package rgl and plotted using plot3d. […]
# T1 sequence (Q9H244 whole entry): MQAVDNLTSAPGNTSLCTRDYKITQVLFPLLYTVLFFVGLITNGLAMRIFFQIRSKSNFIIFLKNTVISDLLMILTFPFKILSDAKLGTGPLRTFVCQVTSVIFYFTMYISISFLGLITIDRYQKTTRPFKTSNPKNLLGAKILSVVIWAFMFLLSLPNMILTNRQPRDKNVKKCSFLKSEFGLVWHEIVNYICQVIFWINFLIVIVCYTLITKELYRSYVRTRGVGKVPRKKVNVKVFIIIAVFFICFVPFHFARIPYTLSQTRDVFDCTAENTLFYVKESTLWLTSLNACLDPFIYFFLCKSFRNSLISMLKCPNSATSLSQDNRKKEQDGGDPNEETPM
Compound,"CCL2 secretion, mean ± SE (iMGLs [1])","CCL3 secretion, mean ± SE (iMGLs [1])","CCL4 secretion, mean ± SE (iMGLs [1])","CCL17 secretion, mean ± SE (iMGLs [1])","CXCL10 secretion, mean ± SE (iMGLs [1])","IL1A secretion, mean ± SE (iMGLs [1])","IL6 secretion, mean ± SE (iMGLs [1])","IL8 secretion, mean ± SE (iMGLs [1])","IL10 secretion, mean ± SE (iMGLs [1])","TNFA secretion, mean ± SE (iMGLs [1])",cytokines/chemokines secreted by iMGLs in response to the stimulus (iMGLs [1]),effect on ADP-induced iMGL migration (P2ry12 [2]),effect on ADP-induced calcium flux in iMGLs (P2ry12 [3]),genes differentially expressed in iMGLs after TGFβ removal (iMGLs [4]; TGFβ removal (24 hours)) [genes],genes differentially expressed (increased) in iMGLs with TGFβ (iMGLs [4]; presence of TGFβ) [genes]
IFNγ: cytokine used to stimulate iMGLs (20 ng/ml),993.26 ± 55.76,295.39 ± 19.72,"4,514.72 ± 10.01^",25.82 ± 1.98,0.00 ± 0.00,1.48 ± 0.25,12.22 ± 1.44,3549.05 ± 181.22,4.59 ± 2.35,58.82 ± 8.80,8,–,–,–,–
Nc1c(S(=O)(=O)O)cc(Nc2ccc(Nc3ccccc3)c(S(=O)(=O)O)c2)c2c1C(=O)c1ccccc1C2=O [PSB0739],–,–,–,–,–,–,–,–,–,–,–,negated; also recorded: completely abrogates ADP-induced iMGL migration,negated,–,–
Lipopolysaccharide [LPS],"5,695.46 ± 275.72",0.00 ± 0.00,"4,594.57 ± 33.96^",92.96 ± 7.70,73.72 ± 4.53,30.55 ± 2.19,274.39 ± 15.25,"4,347.96 ± 75.61^",31.31 ± 1.52,116.49 ± 9.77,induction of all measured cytokines except for CCL3,–,–,–,–
IL-1β: cytokine used to stimulate iMGLs (20 ng/ml),275.98 ± 19.54,556.24 ± 54.01,"4,492.26 ± 51.35^",21.75 ± 1.94,69.49 ± 4.73,4.89 ± 1.45,13.92 ± 0.41,"3,004.54 ± 47.58^",4.42 ± 1.33,29.74 ± 0.65,8,–,–,–,–
TGFβ: glia-derived cytokine in iMGL differentiation media (50 ng/ml),–,–,–,–,–,–,–,–,–,–,–,–,–,1517,1262
